Laboratory results published in the kinase profiling compilation of Christmann-Franck et al. (2016).

Assays:
Experiment in all cases: radiometric filter-binding kinase assay, Kinase HotSpot
Details in all cases: compound 0.5 µM; ATP 10 µM
DAPK2 (human) = DAPK2 (human) (UniProt Q9UIK4)
STK16 (human) = STK16 (human) (UniProt O75716)
RPS6KA4 KD2 (human) = RPS6KA4 KD2 (human) (UniProt O75676)
DYRK1A (human) = DYRK1A (human) (UniProt Q13627)
STK39 (human) = STK39 (human) (UniProt Q9UEW8)
PRKX (human) = PRKX (human) (UniProt P51817)
MYLK (human) = MYLK (human) (UniProt Q15746)
Chain of MYLK (human) (Q15746 whole entry, looked up): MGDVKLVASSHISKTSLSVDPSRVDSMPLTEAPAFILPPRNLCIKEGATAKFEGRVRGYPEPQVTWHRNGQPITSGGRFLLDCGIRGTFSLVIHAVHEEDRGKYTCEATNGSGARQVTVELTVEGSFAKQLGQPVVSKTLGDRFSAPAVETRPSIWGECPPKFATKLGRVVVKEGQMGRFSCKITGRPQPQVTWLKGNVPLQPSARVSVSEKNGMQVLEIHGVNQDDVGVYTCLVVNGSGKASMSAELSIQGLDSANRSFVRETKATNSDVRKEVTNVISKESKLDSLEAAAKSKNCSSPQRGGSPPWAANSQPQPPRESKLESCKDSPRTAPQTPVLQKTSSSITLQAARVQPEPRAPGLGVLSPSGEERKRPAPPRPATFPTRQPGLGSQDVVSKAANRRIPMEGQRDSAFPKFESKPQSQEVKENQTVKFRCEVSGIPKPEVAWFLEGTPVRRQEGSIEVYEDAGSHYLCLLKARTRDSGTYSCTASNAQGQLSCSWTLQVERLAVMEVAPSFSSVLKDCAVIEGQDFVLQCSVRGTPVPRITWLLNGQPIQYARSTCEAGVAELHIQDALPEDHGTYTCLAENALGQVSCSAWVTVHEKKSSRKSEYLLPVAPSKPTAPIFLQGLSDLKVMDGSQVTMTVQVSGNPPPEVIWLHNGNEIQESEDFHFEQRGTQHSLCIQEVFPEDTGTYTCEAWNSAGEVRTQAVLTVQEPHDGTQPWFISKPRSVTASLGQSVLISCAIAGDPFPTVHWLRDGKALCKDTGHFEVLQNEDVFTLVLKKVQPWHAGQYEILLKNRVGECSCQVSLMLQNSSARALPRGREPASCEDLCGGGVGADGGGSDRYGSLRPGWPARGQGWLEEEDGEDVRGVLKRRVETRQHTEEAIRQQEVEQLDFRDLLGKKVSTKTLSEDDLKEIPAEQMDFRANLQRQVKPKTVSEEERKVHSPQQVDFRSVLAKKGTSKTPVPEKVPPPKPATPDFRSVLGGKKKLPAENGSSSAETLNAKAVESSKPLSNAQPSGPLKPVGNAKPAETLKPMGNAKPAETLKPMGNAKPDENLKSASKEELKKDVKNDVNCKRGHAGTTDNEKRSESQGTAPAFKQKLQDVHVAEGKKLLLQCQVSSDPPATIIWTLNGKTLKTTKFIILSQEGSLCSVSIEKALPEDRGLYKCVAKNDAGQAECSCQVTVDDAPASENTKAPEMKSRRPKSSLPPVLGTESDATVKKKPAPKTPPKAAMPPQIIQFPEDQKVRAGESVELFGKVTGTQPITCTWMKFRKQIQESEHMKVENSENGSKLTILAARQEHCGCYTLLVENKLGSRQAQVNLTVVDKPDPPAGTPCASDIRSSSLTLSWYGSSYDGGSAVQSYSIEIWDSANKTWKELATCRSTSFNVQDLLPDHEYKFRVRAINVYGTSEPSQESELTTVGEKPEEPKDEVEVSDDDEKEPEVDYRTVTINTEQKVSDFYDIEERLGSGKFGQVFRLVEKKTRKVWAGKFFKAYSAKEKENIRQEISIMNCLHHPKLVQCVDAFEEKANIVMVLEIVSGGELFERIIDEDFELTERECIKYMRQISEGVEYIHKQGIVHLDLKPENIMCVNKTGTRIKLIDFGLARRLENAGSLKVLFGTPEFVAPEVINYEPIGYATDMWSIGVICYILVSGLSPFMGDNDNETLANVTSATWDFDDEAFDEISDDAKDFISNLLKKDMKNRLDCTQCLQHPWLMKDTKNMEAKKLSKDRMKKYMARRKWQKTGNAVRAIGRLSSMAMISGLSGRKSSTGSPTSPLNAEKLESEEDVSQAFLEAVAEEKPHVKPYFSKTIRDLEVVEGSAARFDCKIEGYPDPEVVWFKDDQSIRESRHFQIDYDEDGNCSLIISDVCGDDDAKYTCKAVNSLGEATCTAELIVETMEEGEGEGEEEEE

TTK (human) = TTK (human) (UniProt P33981)
DDR2 (human) = DDR2 (human) (UniProt Q16832)
CSK (human) = CSK (human) (UniProt P41240)
Chain of CSK (human) (P41240 whole entry, looked up): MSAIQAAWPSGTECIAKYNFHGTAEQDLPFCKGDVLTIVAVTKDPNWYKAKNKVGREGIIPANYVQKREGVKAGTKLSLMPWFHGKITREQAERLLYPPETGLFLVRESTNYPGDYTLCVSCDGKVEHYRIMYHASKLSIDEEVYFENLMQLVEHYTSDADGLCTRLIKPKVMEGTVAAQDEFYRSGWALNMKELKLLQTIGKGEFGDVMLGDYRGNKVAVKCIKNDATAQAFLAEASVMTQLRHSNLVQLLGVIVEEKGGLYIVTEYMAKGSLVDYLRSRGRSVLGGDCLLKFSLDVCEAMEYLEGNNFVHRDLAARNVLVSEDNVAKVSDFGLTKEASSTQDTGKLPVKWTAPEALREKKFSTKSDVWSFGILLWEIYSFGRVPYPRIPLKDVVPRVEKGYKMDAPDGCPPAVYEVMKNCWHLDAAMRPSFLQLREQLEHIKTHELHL

ALK (human) = ALK (human) (UniProt Q9UM73)
CAMKK2 (human) = CAMKK2 (human) (UniProt Q96RR4)
JAK2 JH1 JH2 (human) = JAK2 JH1 JH2 (human) (UniProt O60674)
FGFR3 (human) = FGFR3 (human) (UniProt P22607)
NEK4 (human) = NEK4 (human) (UniProt P51957)
WNK2 (human) = WNK2 (human) (UniProt Q9Y3S1)
FGFR2 (human) = FGFR2 (human) (UniProt P21802)
PKN2 (human) = PKN2 (human) (UniProt Q16513)
RPS6KA6 KD1 KD2 (human) = RPS6KA6 KD1 KD2 (human) (UniProt Q9UK32)
Chain of RPS6KA6 KD1 KD2 (human) (Q9UK32 whole entry, looked up): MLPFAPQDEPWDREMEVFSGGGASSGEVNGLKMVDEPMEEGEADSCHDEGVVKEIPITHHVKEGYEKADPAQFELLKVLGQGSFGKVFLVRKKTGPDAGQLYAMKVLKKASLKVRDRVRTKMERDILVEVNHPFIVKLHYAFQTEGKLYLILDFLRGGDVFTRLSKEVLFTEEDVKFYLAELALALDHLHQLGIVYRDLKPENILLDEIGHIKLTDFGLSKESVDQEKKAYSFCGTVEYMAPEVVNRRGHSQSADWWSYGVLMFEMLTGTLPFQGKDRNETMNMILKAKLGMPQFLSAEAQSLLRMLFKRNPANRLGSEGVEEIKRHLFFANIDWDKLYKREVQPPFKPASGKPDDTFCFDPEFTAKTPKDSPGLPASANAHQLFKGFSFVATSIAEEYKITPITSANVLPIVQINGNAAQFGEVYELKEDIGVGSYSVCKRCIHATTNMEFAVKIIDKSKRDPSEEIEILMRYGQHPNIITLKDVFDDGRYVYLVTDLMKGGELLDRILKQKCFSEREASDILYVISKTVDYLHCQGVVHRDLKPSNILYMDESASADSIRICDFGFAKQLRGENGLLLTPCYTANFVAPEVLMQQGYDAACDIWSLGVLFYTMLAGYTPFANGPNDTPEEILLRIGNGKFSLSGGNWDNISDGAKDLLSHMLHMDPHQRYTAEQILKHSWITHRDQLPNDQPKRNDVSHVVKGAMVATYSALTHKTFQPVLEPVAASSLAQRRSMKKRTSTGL

CLK2 (human) = CLK2 (human) (UniProt P49760)
Chain of CLK2 (human) (P49760 whole entry, looked up): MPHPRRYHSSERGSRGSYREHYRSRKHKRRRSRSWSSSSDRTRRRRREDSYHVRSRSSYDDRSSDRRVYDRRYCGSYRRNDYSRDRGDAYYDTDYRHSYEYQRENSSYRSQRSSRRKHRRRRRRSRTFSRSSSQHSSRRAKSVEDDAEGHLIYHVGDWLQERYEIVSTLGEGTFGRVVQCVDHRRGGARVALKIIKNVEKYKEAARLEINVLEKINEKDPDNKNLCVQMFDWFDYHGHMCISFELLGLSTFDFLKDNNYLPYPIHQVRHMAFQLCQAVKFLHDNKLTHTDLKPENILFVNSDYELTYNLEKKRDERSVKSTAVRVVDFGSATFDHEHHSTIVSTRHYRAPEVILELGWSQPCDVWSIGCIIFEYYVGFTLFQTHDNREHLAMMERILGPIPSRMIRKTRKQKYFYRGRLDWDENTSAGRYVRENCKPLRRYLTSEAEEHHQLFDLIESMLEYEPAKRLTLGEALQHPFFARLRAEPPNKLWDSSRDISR

ZAP70 (human) = ZAP70 (human) (UniProt P43403)
MLTK (human) = MLTK (human) (UniProt Q9NYL2)
MARK2 (human) = MARK2 (human) (UniProt Q7KZI7)
PLK2 (human) = PLK2 (human) (UniProt Q9NYY3)
SRPK1 (human) = SRPK1 (human) (UniProt Q96SB4)
FGFR1 (human) = FGFR1 (human) (UniProt P11362)
HCK (human) = HCK (human) (UniProt P08631)
GSK3A (human) = GSK3A (human) (UniProt P49840)
IRAK1 (human) = IRAK1 (human) (UniProt P51617)
SIK2 (human) = SIK2 (human) (UniProt Q9H0K1)
EPHA3 (human) = EPHA3 (human) (UniProt P29320)
Chain of EPHA3 (human) (P29320 whole entry, looked up): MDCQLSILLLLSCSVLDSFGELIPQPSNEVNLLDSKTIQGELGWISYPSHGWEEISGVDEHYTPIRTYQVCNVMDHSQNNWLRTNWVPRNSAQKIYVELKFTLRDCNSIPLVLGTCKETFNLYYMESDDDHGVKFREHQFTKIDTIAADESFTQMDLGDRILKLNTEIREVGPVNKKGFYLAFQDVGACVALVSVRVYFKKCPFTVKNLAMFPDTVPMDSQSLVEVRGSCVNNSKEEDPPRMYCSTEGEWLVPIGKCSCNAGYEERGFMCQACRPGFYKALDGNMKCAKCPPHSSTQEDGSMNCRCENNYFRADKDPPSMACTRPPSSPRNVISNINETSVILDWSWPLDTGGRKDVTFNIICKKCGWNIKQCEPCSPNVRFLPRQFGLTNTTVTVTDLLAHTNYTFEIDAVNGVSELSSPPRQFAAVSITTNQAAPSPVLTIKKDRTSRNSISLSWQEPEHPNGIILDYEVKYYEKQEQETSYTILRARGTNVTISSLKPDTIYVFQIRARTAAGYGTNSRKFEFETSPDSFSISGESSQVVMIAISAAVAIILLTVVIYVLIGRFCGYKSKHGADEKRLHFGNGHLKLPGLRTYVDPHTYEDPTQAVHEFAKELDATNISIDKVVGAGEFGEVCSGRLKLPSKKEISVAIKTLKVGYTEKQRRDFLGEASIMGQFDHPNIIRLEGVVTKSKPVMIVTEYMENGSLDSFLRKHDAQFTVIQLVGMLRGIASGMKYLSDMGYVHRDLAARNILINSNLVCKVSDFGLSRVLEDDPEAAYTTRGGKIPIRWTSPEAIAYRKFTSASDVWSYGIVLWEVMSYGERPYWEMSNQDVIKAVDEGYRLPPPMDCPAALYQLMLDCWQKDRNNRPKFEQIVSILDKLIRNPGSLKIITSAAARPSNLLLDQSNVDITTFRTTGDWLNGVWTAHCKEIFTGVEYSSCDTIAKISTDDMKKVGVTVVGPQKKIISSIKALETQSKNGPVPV

CDK6 CCND3 (human) = CDK6 CCND3 (human) (UniProt P30281+Q00534)
GRK6 (human) = GRK6 (human) (UniProt P43250)
MAP3K7 TAB1 (human) = MAP3K7 TAB1 (human) (UniProt O43318+Q15750)
ERBB4 (human) = ERBB4 (human) (UniProt Q15303)
LTK (human) = LTK (human) (UniProt P29376)
PRKCA (human) = PRKCA (human) (UniProt P17252)
BLK (human) = BLK (human) (UniProt P51451)
BRSK2 (human) = BRSK2 (human) (UniProt Q8IWQ3)
CSNK2A1 (human) = CSNK2A1 (human) (UniProt P68400)
Chain of CSNK2A1 (human) (P68400 whole entry, looked up): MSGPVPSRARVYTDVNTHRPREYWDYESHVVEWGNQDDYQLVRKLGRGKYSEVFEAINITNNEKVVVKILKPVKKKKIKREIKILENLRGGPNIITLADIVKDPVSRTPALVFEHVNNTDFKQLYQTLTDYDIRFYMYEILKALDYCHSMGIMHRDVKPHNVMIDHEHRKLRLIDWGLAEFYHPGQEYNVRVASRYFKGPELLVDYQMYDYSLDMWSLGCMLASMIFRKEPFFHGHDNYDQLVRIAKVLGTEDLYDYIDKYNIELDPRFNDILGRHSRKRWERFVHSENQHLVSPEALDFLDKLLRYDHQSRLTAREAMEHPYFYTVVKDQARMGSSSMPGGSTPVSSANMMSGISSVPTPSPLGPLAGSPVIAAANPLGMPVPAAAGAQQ

WNK3 (human) = WNK3 (human) (UniProt Q9BYP7)
PRKACA (human) = PRKACA (human) (UniProt P17612)

Structure (SMILES): O=c1cc(N2CCNCC2)oc2c(-c3ccccc3)cccc12
- residual activity (DAPK2 (human)): 94%
- residual activity (STK16 (human)): 97.4%
- residual activity (RPS6KA4 KD2 (human)): 117%
- residual activity (DYRK1A (human)): 96.8%
- residual activity (STK39 (human)): 88.5%
- residual activity (PRKX (human)): 99%
- residual activity (MYLK (human)): 105%
- residual activity (TTK (human)): 91.4%
- residual activity (DDR2 (human)): 95.5%
- residual activity (CSK (human)): 89.7%
- residual activity (ALK (human)): 83.8%
- residual activity (CAMKK2 (human)): 83.7%
- residual activity (JAK2 JH1 JH2 (human)): 104%
- residual activity (FGFR3 (human)): 96.3%
- residual activity (NEK4 (human)): 86.4%
- residual activity (WNK2 (human)): 111%
- residual activity (FGFR2 (human)): 98.9%
- residual activity (PKN2 (human)): 99.5%
- residual activity (RPS6KA6 KD1 KD2 (human)): 99%
- residual activity (CLK2 (human)): 100%
- residual activity (ZAP70 (human)): 102%
- residual activity (MLTK (human)): 103%
- residual activity (MARK2 (human)): 105%
- residual activity (PLK2 (human)): 98.9%
- residual activity (SRPK1 (human)): 106%
- residual activity (FGFR1 (human)): 110%
- residual activity (HCK (human)): 93.7%
- residual activity (GSK3A (human)): 99.7%
- residual activity (IRAK1 (human)): 162%
- residual activity (SIK2 (human)): 110%
- residual activity (EPHA3 (human)): 88.5%
- residual activity (CDK6 CCND3 (human)): 93.8%
- residual activity (GRK6 (human)): 89.6%
- residual activity (MAP3K7 TAB1 (human)): 94.2%
- residual activity (ERBB4 (human)): 104%
- residual activity (LTK (human)): 96.9%
- residual activity (PRKCA (human)): 99.1%
- residual activity (BLK (human)): 122%
- residual activity (BRSK2 (human)): 103%
- residual activity (CSNK2A1 (human)): 89.9%
- residual activity (WNK3 (human)): 93.4%
- residual activity (PRKACA (human)): 110%

Structure (SMILES): COc1ccc(-c2cnc3c(-c4ccsc4)cnn3c2)cc1
- residual activity (DAPK2 (human)): 87.4%
- residual activity (STK16 (human)): 66.9%
- residual activity (RPS6KA4 KD2 (human)): 98.7%
- residual activity (DYRK1A (human)): 69.7%
- residual activity (STK39 (human)): 95.1%
- residual activity (PRKX (human)): 89.5%
- residual activity (MYLK (human)): 102%
- residual activity (TTK (human)): 94.2%
- residual activity (DDR2 (human)): 98.2%
- residual activity (CSK (human)): 95.3%
- residual activity (ALK (human)): 80.4%
- residual activity (CAMKK2 (human)): 72.9%
- residual activity (JAK2 JH1 JH2 (human)): 98.4%
- residual activity (FGFR3 (human)): 81.5%
- residual activity (NEK4 (human)): 80%
- residual activity (WNK2 (human)): 103%
- residual activity (FGFR2 (human)): 92.4%
- residual activity (PKN2 (human)): 107%
- residual activity (RPS6KA6 KD1 KD2 (human)): 90.7%
- residual activity (CLK2 (human)): 83.8%
- residual activity (ZAP70 (human)): 93.7%
- residual activity (MLTK (human)): 84.1%
- residual activity (MARK2 (human)): 82.1%
- residual activity (PLK2 (human)): 100%
- residual activity (SRPK1 (human)): 101%
- residual activity (FGFR1 (human)): 80.3%
- residual activity (HCK (human)): 81.9%
- residual activity (GSK3A (human)): 92.5%
- residual activity (IRAK1 (human)): 94%
- residual activity (SIK2 (human)): 79.4%
- residual activity (EPHA3 (human)): 93.4%
- residual activity (CDK6 CCND3 (human)): 33.4%
- residual activity (GRK6 (human)): 99.9%
- residual activity (MAP3K7 TAB1 (human)): 97.6%
- residual activity (ERBB4 (human)): 94.2%
- residual activity (LTK (human)): 98.9%
- residual activity (PRKCA (human)): 101%
- residual activity (BLK (human)): 83.5%
- residual activity (BRSK2 (human)): 94.1%
- residual activity (CSNK2A1 (human)): 101%
- residual activity (WNK3 (human)): 92.7%
- residual activity (PRKACA (human)): 96.1%

Structure (SMILES): CSc1nc(-c2ccc(F)cc2)c(-c2ccnc(NC(C)c3ccccc3)c2)[nH]1 (stereo unspecified)
- residual activity (DAPK2 (human)): 101%
- residual activity (STK16 (human)): 95.1%
- residual activity (RPS6KA4 KD2 (human)): 96.5%
- residual activity (DYRK1A (human)): 97.9%
- residual activity (STK39 (human)): 95%
- residual activity (PRKX (human)): 91.5%
- residual activity (MYLK (human)): 100%
- residual activity (TTK (human)): 102%
- residual activity (DDR2 (human)): 89.8%
- residual activity (CSK (human)): 82.4%
- residual activity (ALK (human)): 93.3%
- residual activity (CAMKK2 (human)): 84%
- residual activity (JAK2 JH1 JH2 (human)): 102%
- residual activity (FGFR3 (human)): 83.7%
- residual activity (NEK4 (human)): 102%
- residual activity (WNK2 (human)): 118%
- residual activity (FGFR2 (human)): 95.2%
- residual activity (PKN2 (human)): 76.1%
- residual activity (RPS6KA6 KD1 KD2 (human)): 93.1%
- residual activity (CLK2 (human)): 102%
- residual activity (ZAP70 (human)): 102%
- residual activity (MLTK (human)): 85.7%
- residual activity (MARK2 (human)): 90.7%
- residual activity (PLK2 (human)): 94.3%
- residual activity (SRPK1 (human)): 106%
- residual activity (FGFR1 (human)): 97.6%
- residual activity (HCK (human)): 83.5%
- residual activity (GSK3A (human)): 94.1%
- residual activity (IRAK1 (human)): 103%
- residual activity (SIK2 (human)): 97.2%
- residual activity (EPHA3 (human)): 82.5%
- residual activity (CDK6 CCND3 (human)): 98.3%
- residual activity (GRK6 (human)): 79.8%
- residual activity (MAP3K7 TAB1 (human)): 90.5%
- residual activity (ERBB4 (human)): 98.4%
- residual activity (LTK (human)): 83.6%
- residual activity (PRKCA (human)): 108%
- residual activity (BLK (human)): 110%
- residual activity (BRSK2 (human)): 94.8%
- residual activity (CSNK2A1 (human)): 100%
- residual activity (WNK3 (human)): 97.6%
- residual activity (PRKACA (human)): 96%
